Assay results taken from patent publication US20110207729A1, “BICYCLIC ACYLGUANIDINE DERIVATIVE” (ASTELLAS PHARMA INC., priority 2007, published 2011).

Biological target: T1, human 5-HT5A receptor (Homo sapiens, UniProt P47898)
T1 construct: expressed in transfected cells; membrane preparation
Assay: Test on a human 5-HT5A receptor binding inhibition ([3H]5-CT)
Details: membrane from HEK293 cells expressing human 5-HT5A receptor; Ki calculated from IC50 and Kd 4.95 nM
Description: Acquisition of HEK293 cells for forced expressions of a human 5-HT5A receptor
The ORF (open reading frame; protein coding region) of a human 5-HT5A receptor (Genbank AF498985) was cloned from a human hippocampus cDNA library, and then inserted into a pCR2.1 vector (Invitrogen), and Escherichia coli containing the plasmid was cultured in a large amount. Next, the full-length cDNA sequence of the human 5-HT5A receptor was analyzed, and recombined into a pcDNA3.1 vector (Invitrogen) as an expression vector and cultured in a large amount. HEK293 established cells (ATCC) derived from the human fetal kidney were seeded, the expression plasmid (1 μg) obtained above were added thereto with LIPOFECTAMINE 2000 (Invitrogen; 2 μl), the gene was transfected into HEK293 cells, and the expression cells were screened with a drug-resistant marker, Geneticin (G418 sulfate 500 μg/ml; Kanto Chemical Co., Inc.). Thus prepared recombinant cells which express the gene were cultured in a medium containing D-MEM (Dulbecco's modified eagle medium, Sigma), 10% FCS (Fetal calf serum: fetal bovine serum), 1% Pc./Sm (Penicillin/Streptomycin, Invitrogen), and 500 μg/ml G418 for 3 days. These experimental operations follow an manual for gene operation experiment and an instruction appended in a reagent, and the like, such as a known method (Sambrook, J. et al, Molecular Cloning—A Laboratory Manual”, Cold Spring Harabor laboratory, NY, 1989).
(1) Preparation of a Membrane from HEK293 Cells for Forced Expressions of a Human 5-HT5A Receptor
HEK293 cells for forced expressions of a human 5-HT5A receptor were cultured in a F500 plate, and scraped with a scraper. After centrifugation, a precipitate was collected, and an incubation buffer (50 mM Tris (HCl) (pH 7.4), 10 mM MgSO4, and 0.5 mM EDTA (ethylenediamine tetraacetic acid)) were added thereto. After homogenization, it was further centrifuged, and the precipitate was added with the incubation buffer, followed by thoroughly suspending. This operation was repeated, and a protein concentration was measured, thereby completing the preparation of a membrane.
(2) Test on a Human 5-HT5A Receptor Binding Inhibition
A solution of a compound to be tested and 100 μM 5-CT (5-carboxamidetriptamine) in DMSO was added to a 96-well plate at 2 μl/well, and suspended in an incubation buffer, and a membrane from HEK293 cells for forced expressions of a human 5-HT5A receptor prepared at 200 μg/ml was added at 100 μl/well. After incubation at room temperature for 15 minutes, a [^3H]5-CT solution (2 nM [^3H]5-CT, incubation buffer) was added thereto at 100 μl/well.
Separately, 100 μl of the solution was distributed into a liquid scintillation vial, and 2 ml of Aquasol II (registered trademark) was added thereto, followed by stirring. Then, a radioactivity was measured by a liquid scintillation counter. It was incubated at 37° C. for 60 minutes. The reaction mixture was sucked into 96-well GF/C filter plate that had been pre-treated with 0.2% polyethyleneimine, and washed six times with an ice-cooled, 50 mM Tris (pH 7.5) buffer. The GF/C filter plate was dried.
Microscint TMPS (registered trademark) was added thereto at 40 μl/well. A radioactivity remaining on the GF/C filter plate was measured by a top counter.
The [^3H]5-CT binding inhibiting activity by the compound to be tested in each experiment was determined as an IC50 value with a radioactivity upon addition of DMSO alone being 0% inhibition, and a radioactivity upon addition of 1 μM 5-CT being 100% inhibition. Separately, a Ki value was calculated from the Kd value of the [^3H]5-CT determined from Scatchard analysis, by the following equation.
Ki=IC50(1+Concentration of ligands added/Kd(4.95 nM))

T1 sequence (P47898 whole entry): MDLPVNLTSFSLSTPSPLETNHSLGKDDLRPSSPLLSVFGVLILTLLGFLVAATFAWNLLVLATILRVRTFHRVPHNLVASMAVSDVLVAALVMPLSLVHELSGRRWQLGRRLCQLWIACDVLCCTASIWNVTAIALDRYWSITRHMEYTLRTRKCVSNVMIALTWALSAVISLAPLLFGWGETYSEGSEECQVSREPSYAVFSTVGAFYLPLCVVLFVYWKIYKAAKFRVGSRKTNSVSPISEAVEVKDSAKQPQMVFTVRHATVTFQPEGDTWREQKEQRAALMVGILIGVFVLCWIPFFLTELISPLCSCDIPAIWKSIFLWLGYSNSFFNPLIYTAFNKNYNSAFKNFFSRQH

| Compound | Ki |
| --- | --- |
| NC(N)=NC(=O)c1ccc2c(c1)C(c1c(F)ccc(F)c1F)=CCC2 [Example 2-99] | 0.3 to 3 nM |
| CS(=O)(=O)c1ccc(C2=CCCc3ccc(C(=O)N=C(N)N)cc32)cc1 [Example 2-97] | 30 to 300 nM |
| Cc1ccc(C2=CCCc3ccc(C(=O)N=C(N)N)cc32)c(Cl)c1 [Example 2-134] | 0.3 to 3 nM |
| COc1ccc(C2=CCCc3ccc(C(=O)N=C(N)N)cc32)cc1C#N [Example 2-78] | 3 to 30 nM |
| CC1(C)C=C(c2cc(F)c(F)cc2F)c2cc(C(=O)N=C(N)N)ccc2O1 [Example 1-120] | 30 to 300 nM |
| COc1cc(F)ccc1C1=C(C)CCc2ccc(C(=O)N=C(N)N)cc21 [Example 2-71] | 3 to 30 nM |
| NC(N)=NC(=O)c1ccc2c(c1)C(c1cccc(Cl)c1F)=CCC2 [Example 2-110] | 0.3 to 3 nM |
| NC(N)=NC(=O)c1ccc2c(c1)C(c1cccc(Cl)c1F)=CCO2 [Example 1-81] | 0.3 to 3 nM |
| NC(N)=NC(=O)c1ccc2c(c1)C(c1cccc(C(F)(F)F)c1)=CCO2 [Example 1-52] | 3 to 30 nM |
| N#Cc1ccccc1C1=CCOc2ccc(C(=O)N=C(N)N)cc21 [Example 1-21] | 3 to 30 nM |
| N#Cc1cc(F)ccc1C1=CCCc2ccc(C(=O)N=C(N)N)cc21 [Example 2-57] | 3 to 30 nM |
| Cc1ccc(Cl)c(C2=CCOc3ccc(C(=O)N=C(N)N)cc32)c1F [Example 1-82] | 0.3 to 3 nM |
| NC(N)=NC(=O)c1ccc2c(c1)C(c1cccc(F)c1Cl)=CCC2 [Example 2-168] | 0.3 to 3 nM |
| NC(N)=NC(=O)c1ccc2c(c1)C(c1c(F)cccc1Cl)=CCO2 [Example 1-96] | 0.3 to 3 nM |
| NC(N)=NC(=O)c1ccc2c(c1)C(c1ccncc1)=CCC2 [Example 2-49] | 3 to 30 nM |
| NC(N)=NC(=O)c1ccc2c(c1)C(c1ccc(O)cc1)=CCC2 [Example 2-52] | 0.3 to 3 nM |
| CC1=C(c2cc(F)c(F)cc2F)c2cc(C(=O)N=C(N)N)ccc2CC1 [Example 2-143] | 0.3 to 3 nM |
| N#CCc1ccccc1C1=CCCc2ccc(C(=O)N=C(N)N)cc21 [Example 2-114] | 30 to 300 nM |
| COc1ccc(C2=CCCc3ccc(C(=O)N=C(N)N)cc32)c(F)c1 [Example 2-85] | 0.3 to 3 nM |
| CC1=C(c2ccc(F)cc2F)c2cc(C(=O)N=C(N)N)ccc2CC1 [Example 2-177] | 0.3 to 3 nM |
| NC(N)=NC(=O)c1ccc2c(c1)C(c1ccnc(Cl)c1)=CCC2 [Example 2-174] | 3 to 30 nM |
| COc1ncccc1C1=CCCc2ccc(C(=O)N=C(N)N)cc21 [Example 2-140] | 3 to 30 nM |
| NC(N)=NC(=O)c1ccc2c(c1)C(c1ccsc1)=CCC2 [Example 2-19] | 0.3 to 3 nM |
| NC(N)=NC(=O)c1ccc2c(c1)C(c1ccc(C(F)(F)F)cc1C(F)(F)F)=CCC2 [Example 2-117] | 30 to 300 nM |
| CC1C=C(c2cccnc2Cl)c2cc(C(=O)N=C(N)N)ccc2O1 (stereo not drawn) [Example 1-127] | 30 to 300 nM |
| NC(N)=NC(=O)c1ccc2c(c1)C(c1ccccc1[N+](=O)[O-])=CCC2 [Example 2-46] | 3 to 30 nM |
| NC(N)=NC(=O)c1ccc2c(c1)C(c1cncs1)=CCC2 [Example 2-157] | 3 to 30 nM |

The remaining lines, values ahead:

| Ki | Compound |
| --- | --- |
| 3 to 30 nM | NC(N)=NC(=O)c1ccc2c(c1)C(c1c(F)cc(F)cc1F)=CCCC2 [Example 3-05] |
| 30 to 300 nM | N#Cc1ccc(C2=CCCCc3ccc(C(=O)N=C(N)N)cc32)cc1 [Example 3-04] |
| 3 to 30 nM | N#Cc1ccccc1C1=CCSc2ccc(C(=O)N=C(N)N)cc21 [Example 3-19] |
| 3 to 30 nM | NC(N)=NC(=O)c1ccc2c(c1)C(c1c(F)cc(F)cc1F)CCO2 (stereo not drawn) [Example 3-31] |
| 3 to 30 nM | N#Cc1ccc(C2=CCSc3ccc(C(=O)N=C(N)N)cc32)cc1 [Example 3-17] |
| 0.3 to 3 nM | NC(N)=NC(=O)c1ccc2scc(-c3ccc(F)cc3)c2c1 [Example 3-25] |
| 3 to 30 nM | COc1ccccc1-c1c(C#N)sc2ccc(C(=O)N=C(N)N)cc12 [Example 3-39] |
| 0.3 to 3 nM | NC(N)=NC(=O)c1ccc2scc(-c3ccccc3O)c2c1 [Example 3-29] |
| 0.3 to 3 nM | NC(N)=NC(=O)c1ccc2scc(-c3c(F)cc(F)cc3F)c2c1 [Example 3-14] |
